Measurements from patent US9950026B2, “Methods for reducing oxidative damage” (Cornell Research Foundation, Inc., priority 2004, dated 2018).
Where a SMILES comes first, the peptide text is derived from it. [ ]: non-standard residue; d: D form. Dmt = Cc1cc(O)cc(C)c1C[C@H](N)C(=O)O

Columns and labels:
N2A cells [1] = assay: Lipid peroxidation, HNE Michael adducts, after tBHP; assay type: cell-based, murine; details: t-BHP 1 mM, 3 h
Method: Lipid peroxidation was evaluated by measuring HNE Michael adducts. 4-HNE is one of the major aldehydic products of the peroxidation of membrane polyunsaturated fatty acids. N2A cells were seeded on glass bottom dish 1 day before t-BHP treatment (1 mM, 3 h, 37° C., 5% CO2) in the presence of absence of SS-31 (10^−8 to 10^−10 M). Cells were then washed twice with PBS and fixed 30 min with 4% paraformaldehyde in PBS at RT and then washed 3 times with PBS. Cells were then permeabilized, treated with rabbit-anti-HNE antibody followed by the secondary antibody (goat anti-rabbit IgG conjugated to biotin). Cells were mounted in Vectashield and imaged using a Zeiss fluorescence microscope using an excitation wavelength of 460±20 nm and a longpass filter of 505 nm for emission.

mice treated with MPTP = assay: MPTP animal model of Parkinson's Disease; assay type: in vivo; details: MPTP 3 x 10 mg/kg, sacrificed one week later
Method: MPTP is a neurotoxin that selectively destroys striatal dopamine neurons and can be used as an animal model of Parkinson's Disease. MPP^+, a metabolite of MPTP, targets mitochondria, inhibits complex I of the electron transport chain and increases ROS production. MPP^+ is used in cell culture studied because cells are unable to metabolize MPTP to the active metabolite. MPTP is used for animal studies.
Three doses of MPTP (10 mg/kg) was given to mice (n=12) 2 h apart. SS-31 was administered 30 min before each MPTP injection, and at 1 h and 12 h after the last MPTP injection. Animals were sacrificed one week later and striatal brain regions were immunostained for tyrosine hydroxylase activity.
Three doses of MPTP (10 mg/kg) was given to mice (n=12) 2 h apart. SS-31 was administered 30 min before each MPTP injection, and at 1 h and 12 h after the last MPTP injection.
Animals were sacrificed one week later and dopamine, DOPAC and HVA levels were quantified by high pressure liquid chromatography.

N2A cells [2] = assay: Mitochondrial function, MTT assay, after tBHP; assay type: cell-based, murine
Method: FIG. 23A-23B. SS-31 protected against tBHP-induced […]. (A) SS-31 protected mitochondrial viability in N2A cells treated with tBHP for 24 h. Mitochondrial viability was evaluated using the MTT assay (*P<0.01 compared to untreated cells, *P<0.05, P<0.01 compared to tBHP alone). (B) SS-31 protected mitochondrial viability in SH-SY5Y cells treated with tBHP for […] (*P<0.01 compared to untreated cells; **P<0.01 compared to tBHP alone).
Only viable mitochondria containing NADPH dehydrogenase activity are capable of cleaving MTT to the formazan. A 50 μM tBHP induced 50% loss of mitochondrial function in N2A cells (FIG. 23A, […]) and 30% loss of mitochondrial function in SH-SY5Y cells (FIG. 23B, P<0.01). […] Treatment of N2A cells with SS-31 alone had no effect on mitochondrial function.

[3] = tested on: G93A transgenic familial ALS mice; assay: Disease onset, survival and tolerability in ALS mice; assay type: in vivo; details: 5 mg/kg SS-31 i.p.
Method: FIG. 25A-25B. (A) Cumulative probability of disease on set and survival with SS-31 5 mg/kg/day treatment (n=14) […] as compared to vehicle treatment (n=14). […] (B) Mean survival (days) of G93A mice treated with vehicle or SS-31 5 mg/kg/day. (Data are mean±SD, p<0.05, Student's t-test).
Treatment with 5 mg-kg SS-31 i.p. started at 30 days of age of G93A transgenic familial amyotrophic lateral sclerosis (ALS) mice (high copy number, B6SJL-Tg(SOD1-G93A)1Gur/J) led to a significant delay of disease onset as defined by the appearance of tremor and hind limb clasping as well as deterioration in the rotarod performance, the average age of onset in the control group was 88+7 days, in the SS-31 treated group 95+6 days (p<0.05, Logrank (Mantel-Cox)). […] There was a gender effect on survival which has been observed in previous studies with this model as well in G93A mice in this background with males having a shorter life span than females (average of 5 days).

[4] = tested on: C57BL/6 mice subjected to 30 min MCAO; assay: Redox status (cysteine, ascorbate, GSH) after transient MCAO; assay type: in vivo; details: 2 mg/kg i.p. upon reperfusion, 6 h
Method: FIG. 31A-31C. Effect of SS-31 peptide on ischemia-induced changes in cysteine (A) ascorbate (B), and GSH (C) levels, C57BL/6 mice were subjected to 30 min MCAO and treated with vehicle, SS-31 (2 mg/kg body weight) or SS-20 (2 mg/kg body eight) peptide immediately after reperfusion. Mice were sacrificed at 6 h postischemia. Values are expressed as percent increase (cysteine) or percent depletion (ascorbate and GSH) in ipsilateral side versus contralateral side. Error bars indicate SEM (n=4-6 animals per group).
To test the efficacy of SS-3 1 on redox status, cysteine, ascorbate and GSH levels were determined 6 h after 30 min transient middle cerebral artery occlusion (MCAO) in mice treated intraperitoneally (i.p.) with saline (vehicle), SS-31 (2 mg/kg) or SS-20 (2 mg/kg) upon reperfusion. Values in FIG. 31 are expressed as percent increase (cysteine) and percent depletion (ascorbate and GSH) in the ipsilateral side compared to the contralateral side. Absolute values were originally expressed as nmoles/mg protein as shown in FIG. 30 and converted to percent difference. The percent ipsilateral cysteine increase was similar among vehicle-, SS-31-, and SS-20-treated groups (FIG. 31A).

## Cc1cc(O)cc(C)c1C[C@H](NC(=O)[C@H](N)CCCNC(=N)N)C(=O)N[C@@H](CCCCN)C(=O)N[C@@H](Cc1ccccc1)C(N)=O [SS-31, D-Arg-2′6′-Dmt-Lys-Phe-NH2] (H-[dR][Dmt]KF-NH2; N-terminus assumed)
N2A cells [1]
  lipid peroxidation (HNE adducts): inhibited lipid peroxidation
Mice treated with MPTP
  loss of dopamine neurons (tyrosine hydroxylase immunostaining): dose-dependently prevented loss
  striatal DOPAC levels: dose-dependently increased
  striatal HVA levels: dose-dependently increased
  striatal dopamine levels: dose-dependently increased
N2A cells [2]; tBHP 50-100 μM, 24 h
  tBHP-induced mitochondrial toxicity/dysfunction (MTT): dose-dependently reduced
N2A cells [2]; without tBHP
  mitochondrial function, peptide alone: no effect
[3]
  average age of onset: 95+6 days
  survival: 142+12 day
  tolerability / side effects: well tolerated and no side effects were observed
[3]; vs control
  increase in survival: 9%
[4]
  ischemia-induced GSH depletion in the cortex: significantly attenuated
  percent ipsilateral cysteine increase: similar
  percent ipsilateral depletion of ascorbate: marginally but not significantly affected
